# Reference: patent publication US11471528B2, “Methods for using extracellular adenosine inhibitors and adenosine receptor inhibitors to enhance immune response and inflammation” (The Government of the United States of America as …, priority 2001, dated 2022)
# What was measured:
# [1] = test system: activated macrophages and T cells; test: Secretion of IL-12 and IFN-γ by activated macrophages and T cells in vitro (ELISA); type: cell-based; details: FIG. 1B
# IkB = IkB phosphorylation in macrophages after CpG (Western blot); type: in vivo; details: C57BL/6 mice, 5 nMol CpG i.v., CGS21680 2 mg/kg, macrophages after 20 minutes
# Method: After 20 minutes, macrophages were isolated as described above, and subjected to Western blot analysis using Ab that recognize IkB and Ab can distinguish the phosphorylated form of IkB (IkB-P).
# CMS4 tumor cells = test: CMS4 lung tumors with antigen-specific CTL immunotherapy; type: in vivo; details: BALB/c mice, CMS4 i.v., CTL on day 10; ZM241385 10 mg/kg/day i.p. or caffeine 0.1% w/v in drinking water; FIGS. 12A-C
# Description: BALB/c mice were inoculated i.v. with CMS4 tumor cells (Methylcholanthrene-induced sarcoma, 2.5×10^5 cells) on day zero to induce the formation of lung tumors. […] The lung tumors were subsequently examined on days 17, day 18 and day 24, by sacrificing the mice and evaluating their lungs for the number and size of metastasis by visual inspection.
# [2] = test system: anti-TNP-specific immunoglobulins; test: TNP-KLH vaccination, serum anti-TNP-specific immunoglobulins (ELISA); type: in vivo, mice; details: for IgG2: day 7, co-injected with TNP-KLH; for serum levels of anti-TNP-specific IgG1: seven days, versus control
# Method: The antigen was prepared for injection as follows. DNP-KLH (1.0 mg/ml, Biosearch Technologies, Inc. catalog no. T-5060-5) was prepared in PBS (e.g. dissolve 4.0 mg of purified DNP-KLH in PBS and raise volume to 4.0 ml). Complete Freund's Adjuvant (2.0 ml, CFA; Sigma F-5881) was vortexed and mixed with 2.0 ml of the TNP-KLH solution at 4° C. The CFA/KLH mixture was drawn into a 3-ml glass syringe with a 19-gauge needle. The syringe was attached to a double-ended locking hub connector or a plastic 3-way stopcock. An empty 2-ml glass syringe was attached to the other end and the mixture forced back and forth from one end to the other repeatedly. When the mixture was white and homogeneous, the connector or stopcock was disconnected, a 25 gauge needle attached, and tested for emulsion by placing a drop on the surface of 50 ml of cold water in a 100-ml beaker. The drop should hold together; if not, repeat mixing. […] Samples of blood were obtained by retro-orbital bleeding at 7, 14, and 21 days after TNP-KLH and theophylline injection. Serum levels of anti-TNP-specific IgG1, IgG2a, IgG2b, IgG3, and IgM were estimated using an ELISA kit (Sigma) according to the manufacturer's instructions.
# B16 melanoma cells = test: B16 melanoma tumor growth; type: in vivo, mice; details: daily i.p., ZM241385 0.2 mg/mouse, caffeine 0.4 mg/mouse, start 28 days after tumor cells; FIG. 14
# Description: […] (immunocompromised nude mice; or immunocompetent C57BL/6 mice) were inoculated subcutaneously with B16 melanoma cells (American Type Culture Collection, Manassas, Va.), or B16-H2-Kd transfected tumor cells (increases the immunogenicity of the cells) on day zero to induce the formation of melanomas. The treatment with adenosine receptor antagonists started 28 days after injection of tumor cells, when the tumor reached 7-9 mm in diameter.
# […]. The delay in tumor growth was greater in immunocompetent C57BL/6 mice, and less so in immunocompromised nude mice. However, as the tumor increases in size, both antagonists slow down tumor growth even in immunocompromised animals. […] In addition, adenosine receptor antagonists appear to improve both anti-tumor immunity and preventing or decreasing angiogenesis.
# [3] = test system: NF-kB-regulated pro-inflammatory cytokines (TNFα, IL-12p40); test: Cytokine mRNA in spleen of CpG-activated mice (RNase protection assay); type: in vivo; details: C57BL/6 mice, 10 mg/kg i.p. 15 minutes before CpG, FIGS. 8A and 8B
# Method: Mutant (A2aR^−/−) or wild-type mice were injected (i.p.) with 20 nmol CpG oligonucleotide (5′-T*C*[…]*A*T*G*C*T-3′, asterisk means phosphorothioate. SEQ ID NO. 1). This toll-receptor activating CpG DNA preparation stimulates the immune system. After one hour, mRNA was extracted from spleenocytes and analyzed for cytokine gene expression using an RNase protection assay with commercial templates (mCK-2b and mCK-3b, Pharmingen, San Diego, Calif.).
# [4] = co-injected with TNP-KLH, about 1 mg/kg
smiles,measurement,setting,value
CCNC(=O)[C@H]1O[C@@H](n2cnc3c(N)nc(NCCc4ccc(CCC(=O)O)cc4)nc32)[C@H](O)[C@@H]1O [CGS21680],secretion of IFN-γ,[1],inhibited secretion
same,secretion of IL-12,[1],inhibited secretion
same,phosphorylation of IkB,IkB,decreased or inhibited
Nc1nc(NCCc2ccc(O)cc2)nc2nc(-c3ccco3)nn12 [ZM241385],number of metastatic nodules in the lung,CMS4 tumor cells,decrease in the number of metastatic nodules
same,IgG2,[2],improved
same,serum levels of anti-TNP-specific IgG1,[2]; [4],markedly increased
same,tumor growth,B16 melanoma cells,tumor retardation that became significant after 3-7 days of treatment
same,mRNA expression of NF-kB-regulated pro-inflammatory cytokines,[3],higher expression of NF-kB-regulated pro-inflammatory cytokines
Cn1c(=O)c2[nH]cnc2n(C)c1=O [theophylline],serum levels of anti-TNP-specific IgG1,"[2]; co-injected i.p. with TNP-KLH, FIG. 15",markedly increased
same,serum levels of anti-TNP-specific IgG1,[2]; co-injected subcutaneously with TNP-KLH,improvement of antibody production
same,serum levels of anti-TNP-specific IgG1,"[2]; co-injected subcutaneously with TNP-KLH, listed as theophyllin",markedly increased
O=C(Cc1ccccc1)Nc1nc2ccc(Cl)cc2c2nc(-c3ccco3)nn12 [MRS1220],IgG2,[2],improved
same,serum levels of anti-TNP-specific IgG1,[2]; [4],markedly increased
